Reference: PMC8307647, “Bio-Guided Fractionation of Stem Bark Extracts from Phyllanthus muellarianus: Identification of Phytocomponents with Anti-Cholinesterase Activity” (Molecules, 2021)
Where two headings read alike, the source gives them in different places.

Tests used:
BuChE from human serum = BuChE from human serum (Homo sapiens, UniProt P06276); assay: biochemical; type: biochemical; details: for inhibition at 100 µg/mL: read-out: Inhibition hBuChE at 100 µg/mL % ± SD
Human recombinant AChE = Human recombinant AChE (Homo sapiens, UniProt P22303); assay: biochemical; details: for inhibition at 100 µg/mL: read-out: Inhibition hAChE at 100 µg/mL % ± SD
Sequence of Human recombinant AChE (P22303 32-614): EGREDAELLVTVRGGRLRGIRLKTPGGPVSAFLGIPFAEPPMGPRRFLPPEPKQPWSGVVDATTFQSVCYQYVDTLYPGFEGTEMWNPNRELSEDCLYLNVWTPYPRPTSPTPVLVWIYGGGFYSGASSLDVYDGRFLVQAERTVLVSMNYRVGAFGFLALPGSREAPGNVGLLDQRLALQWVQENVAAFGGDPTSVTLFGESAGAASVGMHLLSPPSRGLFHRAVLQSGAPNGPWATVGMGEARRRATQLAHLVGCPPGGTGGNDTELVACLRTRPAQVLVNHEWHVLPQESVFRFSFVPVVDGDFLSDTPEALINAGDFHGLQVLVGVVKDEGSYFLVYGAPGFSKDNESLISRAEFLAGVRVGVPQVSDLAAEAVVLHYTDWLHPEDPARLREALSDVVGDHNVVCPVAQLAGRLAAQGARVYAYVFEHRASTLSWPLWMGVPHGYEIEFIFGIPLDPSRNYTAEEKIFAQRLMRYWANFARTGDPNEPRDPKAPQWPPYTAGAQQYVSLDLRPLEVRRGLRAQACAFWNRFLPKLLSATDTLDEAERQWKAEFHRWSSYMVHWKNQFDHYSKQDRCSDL

male Swiss mice = tested on: male Swiss mice; design: method as in PMID 29186770; details: single dose 20 mg kg−1 b.w.; cited from earlier work
Aβ1–42 = tested on: T1, Aβ1–42; assay: Inhibition of Aβ1–42 self-aggregation, thioflavin T fluorescence assay; type: biochemical; details: 1:1 molar ratio with Aβ (50 μM), 30 °C, 24 h
T1 construct: 42-aminoacid long Aβ peptide (Aβ1–42) self-aggregation; purchased Bachem AG, Bubendorf, Switzerland
Method: As reported in the previously published protocol by Bartolini et al., 1,1,1,3,3,3,hexafluoro 2-propanol pre-treated Aβ1–42 samples (Bachem AG, Bubendorf, Switzerland) were solubilized with a AcCN/0.3 mM Na2CO3/250 mM NaOH (48.4/48.4/3.2) mixture to obtain a 500 μM stock solution. Experiments were performed by diluting (final Aβ concentration 50 μM) and incubating the peptide in 10 mM phosphate buffer (pH = 8.0) containing 10 mM NaCl, at 30 °C for 24 h with and without nitidine (50 μM, Aβ/nitidine = 1/1). A blank sample containing nitidine was also prepared. To quantify amyloid fibril formation, the thioflavin T fluorescence method was used. After incubation, samples were diluted to a final volume of 2.0 mL with 50 mM glycine-NaOH buffer (pH 8.5) containing 1.5 μM thioflavin T. A 300-second time scan of fluorescence intensity was carried out (λexc = 446 nm; λem = 490 nm, FP-6200 fluorometer, Jasco Europe, Cremella, Italy), and values at plateau were averaged after subtracting the background fluorescence of 1.5 μM thioflavin T solution. The fluorescence intensities obtained in the absence and in the presence of nitidine were compared and the percent inhibition due to the presence of nitidine was calculated by the following formula: 100 − (100 × IFi/IFo), where IFi and IFo are the fluorescence intensities obtained for Aβ1–42 in the presence and in the absence of nitidine, respectively.

human cholinesterases = details: cited from earlier work
Aβ = details: cited from earlier work

Sequence of BuChE from human serum (P06276 29-602): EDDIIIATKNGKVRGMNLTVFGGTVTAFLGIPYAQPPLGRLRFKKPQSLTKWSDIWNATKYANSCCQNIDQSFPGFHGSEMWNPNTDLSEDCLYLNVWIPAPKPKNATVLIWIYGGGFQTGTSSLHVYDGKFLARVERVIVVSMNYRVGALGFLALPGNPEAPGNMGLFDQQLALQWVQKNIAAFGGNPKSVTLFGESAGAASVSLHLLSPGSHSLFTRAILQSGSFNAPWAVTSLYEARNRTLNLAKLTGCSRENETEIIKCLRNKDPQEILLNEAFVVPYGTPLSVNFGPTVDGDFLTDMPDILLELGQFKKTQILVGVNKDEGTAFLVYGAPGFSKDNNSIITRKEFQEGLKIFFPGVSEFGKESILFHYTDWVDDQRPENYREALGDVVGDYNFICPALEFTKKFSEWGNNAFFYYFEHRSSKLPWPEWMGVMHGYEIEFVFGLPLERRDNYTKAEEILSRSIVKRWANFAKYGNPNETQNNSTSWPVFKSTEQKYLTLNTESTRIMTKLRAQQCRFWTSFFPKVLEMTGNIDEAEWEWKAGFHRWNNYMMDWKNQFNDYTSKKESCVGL

Structure (SMILES): COc1ccc2c3c1O[C@H]1C[C@@H](O)C=C[C@@]31CCN(C)C2 [Galanthamine, reference compound]
- inhibition at 100 µg/mL (BuChE from human serum): > 90%

Structure (SMILES): COc1ccc2c(c1O)-c1c(O)c(OC)cc3c1[C@H](C2)[N+](C)(C)CC3 [Magnoflorine (PC1), Magnoflorine]
- IC50 (Human recombinant AChE; read-out: IC50 hAChE µM ± SD): 1120 ± 83 µM
- inhibition at 100 µg/mL (Human recombinant AChE): 19 ± 2.9%
- IC50 (BuChE from human serum; read-out: IC50 hBuChE µM ± SD): 131 ± 9 µM
- inhibition at 100 µg/mL (BuChE from human serum): 69.9 ± 2.4%
- selectivity index (BuChE from human serum; selective for hBuChE over hAChE): 8.5
- cognitive functions in a passive avoidance test (male Swiss mice): significantly enhanced
- long-term scopolamine-induced memory impairment (male Swiss mice): able to reverse

Structure (SMILES): COc1cc2c[n+](C)c3c4cc5c(cc4ccc3c2cc1OC)OCO5 [Nitidine (PC3), 2,3-dimethoxy-12-methyl-[1,3]benzodioxolo[5,6-c]phenanthridin-12-ium]
- IC50 (Human recombinant AChE): 5.31 ± 0.5 µM
- inhibition at 100 µg/mL (Human recombinant AChE): > 90%
- IC50 (BuChE from human serum): 6.68 ± 0.13 µM
- inhibition at 100 µg/mL (BuChE from human serum): > 90%
- inhibition percentage of Aβ1–42 self-aggregation (Aβ1–42): 15.9 ± 1.0

Structure (SMILES): COc1ccc2c(c[n+](C)c3c4cc5c(cc4ccc23)OCO5)c1OC [chelerythrine, 1,2-dimethoxy-12-methyl[1,3]benzodioxolo[5,6-c]phenanthridin-12-ium]
- inhibition of human cholinesterases (human cholinesterases): micromolar inhibitor
- inhibition of Aβ self-aggregation (Aβ): significantly inhibit
